For 21 compounds, IC50, selectivity ratio and Activity results are on record in ChEMBL document CHEMBL4184120, “Target ROS to induce apoptosis and cell cycle arrest by 5,7-dimethoxy-1,4-naphthoquinone derivative” (Bioorg Med Chem Lett, 2018).

The structures appear in SMILES notation. pIC50: −log10 of the molar value.

For one data set, the system named is NCI-H460. Nature of the data set: Antiproliferative activity against human NCI-H460 cells after 48 by hrs MTT assay. The class given is functional, cell-based. For orientation: Formazan colour is commonly taken as a measure of viable cells.
The next data set has as its system HeLa. Nature of the data set: Antiproliferative activity against human HeLa cells after 48 hrs by MTT assay. The class given is functional, cell-based.
A further data set deals with A549. Nature of the data set: Antiproliferative activity against human A549 cells after 48 hrs by MTT assay. The data set is classed as functional, cell-based. Particulars: A549, 48 h.
The test system of data set [1] is HL-60. Nature of the data set: Antiproliferative activity against human HL60 cells after 48 hrs by MTT assay. The data set is classed as functional, cell-based. The settings on record: HL-60, 48 h.
For another data set, the system named is HepG2. Briefly: Antiproliferative activity against human HepG2 cells after 48 hrs by MTT assay. The class given is functional, cell-based. The settings on record: HepG2, 48 h.
The subject of the next data set is WI-38. Briefly: Antiproliferative activity against human WI38 cells after 48 hrs by MTT assay. The class given is cell-based. The settings on record: WI-38, 48 h.
Data set [2] is described as follows: Selectivity index, ratio of IC50 for human WI38 cells to IC50 for human HL60 cells. The data set is classed as toxicity. Particulars: WI38 cells and HL60 cells, read-out: Ratio IC50.
Another data set deals with K562. Nature of the data set: Antiproliferative activity against human K562 cells after 48 hrs by MTT assay. The data set is classed as functional, cell-based. The settings on record: K562, 48 h.
The test system of data set [3] is HL-60. Briefly: Induction of apoptosis in human HL60 cells assessed as early apoptotic cells at 5 mM after 48 hrs by Annexin V-FITC/propidium iodide staining based flow cytometry (reference value: 3.13%). The data set is classed as functional. (In general: In flow cytometry, cells or beads pass a laser one at a time.)
The test system of data set [4] is HL-60. Nature of the data set: Cell cycle arrest in human HL60 cells assessed as accumulation at S phase at 5 mM after 48 hrs by propidium iodide staining based assay (reference value: 46.44%). The class given is functional.
Data set [5] deals with HL-60. Briefly: Cell cycle arrest in human HL60 cells assessed as accumulation at G0/G1 phase at 5 mM after 48 hrs by propidium iodide staining based assay (reference value: 50.88%). The class given is functional.
Data set [6] deals with HL-60. Briefly: Cell cycle arrest in human HL60 cells assessed as accumulation at G2/M phase at 5 mM after 48 hrs by propidium iodide staining based assay (reference value: 2.68%). The class given is functional.
Data set [7] concerns HL-60. Nature of the data set: Induction of apoptosis in human HL60 cells assessed as late apoptotic cells at 5 mM after 48 hrs by Annexin V-FITC/propidium iodide staining based flow cytometry (reference value: 1.23%). The class given is functional.
Data set [8] in a line: Redox potential of the compound in pH 7.4 PBS buffer assessed as reduction potential at 0.4 mM by cyclic voltametry. The data set is classed as physicochemical. The settings on record: pH 7.4, 400 µM.
The nature of data set [9]: Redox potential of the compound in pH 7.4 PBS buffer assessed as half wave potential at 0.4 mM by cyclic voltametry. The data set is classed as physicochemical. The settings on record: pH 7.4, 400 µM.
Data set [10] can be described thus: Redox potential of the compound in pH 7.4 PBS buffer assessed as oxidation potential at 0.4 mM by cyclic voltametry. The class given is physicochemical. Particulars: pH 7.4, 400 µM.

For `COC1=C(CCc2ccc(OC)cc2)C(=O)c2c(OC)cc(OC)cc2C1=O`, the pIC50 (usually the IC50 on a negative log10 scale, so that one unit is a factor of ten) was 4.43 in the data set with NCI-H460; 4.46 in the data set on HeLa; less than 4.00 in the data set with A549; 4.28 with HL-60 [1]; 4.32 in the data set with HepG2.
For the compound `CCCC1=C(O)C(=O)c2cc(OC)cc(OC)c2C1=O`, the pIC50 in the data set with NCI-H460 was less than 4.00; in the data set with HeLa it was less than 4.00; in the data set with A549 it was 4.10; in the data set on HL-60 [1], less than 4.00; in the data set with HepG2 it was less than 4.00.
For `COc1ccc(CCC2=C(Cl)C(=O)c3cc(OC)cc(OC)c3C2=O)cc1`, the pIC50 in the data set on NCI-H460 is less than 4.00; in the data set on HeLa it was 4.53; in the data set with A549 it was 4.08; with WI-38, 4.57; with HL-60 [1], 4.82; in the data set on HepG2, 4.43. The pIC50 in the data set on K562 was 4.72. Further, the selectivity ratio in data set [2] stood at 1.8.
For the compound `COC1=C(CCC2CCCCC2)C(=O)c2c(OC)cc(OC)cc2C1=O`, the pIC50 in the data set with NCI-H460 was 4.37; with HeLa it was 4.15; in the data set on A549, less than 4.00; in the data set with HL-60 [1], 4.25; in the data set on HepG2 it was 4.43.
`CC(=O)N[C@@H](CS)C(=O)O` [ACETYLCYSTEINE]: the Activity in the data set on HL-60 [3] was 1.56%; with HL-60 [4] it was 40.12%; in the data set with HL-60 [5], 57.36%; in the data set on HL-60 [6], 2.52%; in the data set on HL-60 [7] it was 2.43%.
In the case of `CCCCCCCCCCCCC1=C(O)C(=O)c2cc(OC)cc(OC)c2C1=O`, the negative logarithm of the IC50 (pIC50) in the data set on NCI-H460 was less than 4.00; in the data set on HeLa it was less than 4.00; with A549, less than 4.00; in the data set on HL-60 [1] it was 4.06; in the data set with HepG2, less than 4.00.
As to `CCC1=C(O)C(=O)c2cc(OC)cc(OC)c2C1=O`, the pIC50 was less than 4.00 with NCI-H460; 4.02 with HeLa; less than 4.00 with A549; less than 4.00 with HL-60 [1]; less than 4.00 in the data set on HepG2.
Consider `CCCCCCCCCCC1=C(O)C(=O)c2cc(OC)cc(OC)c2C1=O`, for which the pIC50 in the data set on NCI-H460 is less than 4.00; with HeLa it was less than 4.00; with A549, less than 4.00; in the data set on HL-60 [1], 4.02; in the data set with HepG2, less than 4.00.
Take `COc1cc(OC)c2c(c1)C(=O)C(O)=C(C)C2=O`: the pIC50 was less than 4.00 in the data set on NCI-H460; 4.04 in the data set on HeLa; less than 4.00 in the data set on A549; less than 4.00 in the data set on HL-60 [1]; less than 4.00 with HepG2.
Take `COc1cc(OC)c2c(c1)C(=O)C(O)=C(CCC1CCCCC1)C2=O`: the pIC50 in the data set on NCI-H460 was 4.06; with HeLa, 4.10; with A549 it was 4.11; with HL-60 [1] it was 4.02; in the data set with HepG2, 4.30.
Turning to `COc1cc(OC)c2c(c1)C(=O)C(Cl)=C(CCC1CCCCC1)C2=O`, the pIC50 in the data set with NCI-H460 was 4.21; in the data set on HeLa, 4.67; with A549, 4.20; in the data set with WI-38, 4.47; in the data set on HL-60 [1], 5.04; with HepG2, 4.38. The compound further had a pIC50 in the data set on K562 of 4.52. Also, the selectivity ratio in [2] turned out to be 3.7.
Regarding `CCCCC1=C(OC)C(=O)c2cc(OC)cc(OC)c2C1=O`, the Activity was -0.311 V in [8], -0.249 V in data set [9] and -0.187 V in data set [10]. Further, the pIC50 with NCI-H460 was 4.12; with HeLa, 4.28; in the data set with A549, less than 4.00; in the data set with HL-60 [1], 4.21; with HepG2 it was 4.25.
For `COc1cc(OC)c2c(c1)C(=O)C(O)=C(CCc1ccc(N(CCCl)CCCl)cc1)C2=O`, the pIC50 is less than 4.00 in the data set on NCI-H460; less than 4.00 with HeLa; less than 4.00 with A549; 4.58 in the data set with HL-60 [1]; 4.09 in the data set with HepG2.
With `COc1cc(OC)c2c(c1)C(=O)C(O)=C(CCc1ccc(Br)cc1)C2=O`, the pIC50 in the data set on NCI-H460 was less than 4.00; with HeLa it was less than 4.00; in the data set on A549 it was less than 4.00; with HL-60 [1], less than 4.00; with HepG2, 4.14.
Consider `CCCCCCCCC1=C(O)C(=O)c2cc(OC)cc(OC)c2C1=O`, for which the pIC50 in the data set with NCI-H460, in the data set with HeLa, in the data set on A549, in the data set with HL-60 [1] and with HepG2 was less than 4.00 throughout.
Regarding `CCCCCCC1=C(O)C(=O)c2cc(OC)cc(OC)c2C1=O`, the pIC50 in the data set on NCI-H460 was less than 4.00; with HeLa it was less than 4.00; in the data set with A549, less than 4.00; in the data set on HL-60 [1], less than 4.00; with HepG2, 4.04.
On to `O=c1[nH]cc(F)c(=O)[nH]1` [FLUOROURACIL], for which the pIC50 was 4.52 with HeLa, 4.17 with HL-60 [1] and 4.44 in the data set with HepG2.
`COc1ccc(CCC2=C(O)C(=O)c3cc(OC)cc(OC)c3C2=O)cc1`: the pIC50 in the data set with NCI-H460 is 4.01; in the data set on HeLa, 4.14; in the data set with A549 it was 4.08; in the data set on HL-60 [1] it was 4.03; in the data set on HepG2, 4.22.
Turning to `COc1cc(OC)c2c(c1)C(=O)C(O)=C(CCc1ccccc1)C2=O`, the pIC50 was less than 4.00 with NCI-H460; less than 4.00 in the data set with HeLa; less than 4.00 in the data set with A549; 4.02 with HL-60 [1]; 4.02 with HepG2.
Turning to `COc1cc(OC)c2c(c1)C(=O)C(O)=CC2=O`, the pIC50 in the data set with NCI-H460, in the data set on HeLa, with A549, in the data set with HL-60 [1] and with HepG2 was less than 4.00 each time.
Turning to `CCCCC1=C(O)C(=O)c2cc(OC)cc(OC)c2C1=O`, the Activity in data set [8] is -0.328 V; in [9] it was -0.278 V; in data set [10], -0.227 V. In addition, the pIC50 was less than 4.00 in the data set on NCI-H460; less than 4.00 with HeLa; 4.18 with A549; less than 4.00 in the data set with HL-60 [1]; 4.02 with HepG2.
